Source: US12441691B2 (Cytokinetics, Inc., priority 2020, dated 2025)

Tested on: rabbit skeletal myofibrils (fast skeletal myofibrils)
Assay: Activation of fast skeletal myofibrils (PUMA assay, AC1.4)
Assay type: biochemical
Conditions: calcium at pCa25, AC1.4 = concentration at which the compound increased the enzymatic activity
Summary of the method: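 Detergent-washed rabbit psoas myofibrils (~90% fast fibers), calcium set to give 25% of maximal rate (pCa25). ATPase followed by pyruvate kinase/lactate dehydrogenase-coupled NADH oxidation, absorbance at 340 nm. PM12 buffer: 12 mM PIPES, 2 mM MgCl2, 1 mM DTT, pH 6.8.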

SMILES | AC1.4
CC[C@H](C)[C@H]1C(=O)Nc2ccccc2CN1C(=O)CCN1CCC[C@H]1C(N)=O [Compound 186, (S)-1-(3-((S)-3-((S)-sec-butyl)-2-oxo-1,2,3,5-tetrahydro-4H-benzo[e][1,4]diazepin-4-yl)-3-oxopropyl)pyrrolidine-2-carboxamide] | 2.18 µM
CC[C@H](C)[C@H]1C(=O)Nc2ccccc2CN1C(=O)CCN1CCC[C@@H]1C(N)=O [Compound 187, (R)-1-(3-((S)-3-((S)-sec-butyl)-2-oxo-1,2,3,5-tetrahydro-4H-benzo[e][1,4]diazepin-4-yl)-3-oxopropyl)pyrrolidine-2-carboxamide] | 1.39 µM
CC[C@H](C)[C@H]1C(=O)Nc2ccccc2CN1C(=O)[C@H]1CCCN1CCC(N)=O [Compound 188, 3-((R)-2-((S)-3-((S)-sec-butyl)-2-oxo-2,3,4,5-tetrahydro-1H-benzo[e][1,4]diazepine-4-carbonyl)pyrrolidin-1-yl)propanamide] | 3.46 µM
CC[C@H](C)[C@H]1C(=O)Nc2ccccc2CN1C(=O)c1cn(C)nn1 [Compound 189, (S)-3-((S)-sec-butyl)-4-(1-methyl-1H-1,2,3-triazole-4-carbonyl)-1,3,4,5-tetrahydro-2H-benzo[e][1,4]diazepin-2-one] | 0.10 µM
CC[C@H](C)[C@H]1C(=O)Nc2ccccc2CN1C(=O)c1ccnnc1 [Compound 190, (S)-3-((S)-sec-butyl)-4-(pyridazine-4-carbonyl)-1,3,4,5-tetrahydro-2H-benzo[e][1,4]diazepin-2-one] | 0.54 µM
CC[C@H](C)[C@H]1C(=O)Nc2ccccc2CN1C(=O)c1cncnc1 [Compound 191, (S)-3-((S)-sec-butyl)-4-(pyrimidine-5-carbonyl)-1,3,4,5-tetrahydro-2H-benzo[e][1,4]diazepin-2-one] | 0.19 µM
CC[C@H](C)[C@H]1C(=O)Nc2ccccc2CN1C(=O)c1cccnn1 [Compound 192, (S)-3-((S)-sec-butyl)-4-(pyridazine-3-carbonyl)-1,3,4,5-tetrahydro-2H-benzo[e][1,4]diazepin-2-one] | 0.19 µM
CC[C@H](C)[C@H]1C(=O)Nc2ccccc2CN1C(=O)[C@@H]1CC(=O)N(C)C1 [Compound 193, (S)-3-((S)-sec-butyl)-4-((R)-1-methyl-5-oxopyrrolidine-3-carbonyl)-1,3,4,5-tetrahydro-2H-benzo[e][1,4]diazepin-2-one] | 0.72 µM
CC[C@H](C)[C@H]1C(=O)Nc2ccccc2CN1C(=O)[C@H]1CC(=O)N(C)C1 [Compound 194, (S)-3-((S)-sec-butyl)-4-((S)-1-methyl-5-oxopyrrolidine-3-carbonyl)-1,3,4,5-tetrahydro-2H-benzo[e][1,4]diazepin-2-one] | 1.52 µM
CC[C@H](C)[C@H]1C(=O)Nc2ccccc2CN1C(=O)CNC(C)=O [Compound 195, N-(2-((S)-3-((S)-sec-butyl)-2-oxo-1,2,3,5-tetrahydro-4H-benzo[e][1,4]diazepin-4-yl)-2-oxoethyl)acetamide] | 1.84 µM
CC[C@H](C)[C@H]1C(=O)Nc2ccccc2CN1C(=O)[C@H](C)NC(C)=O [Compound 196, N-((S)-1-((S)-3-((S)-sec-butyl)-2-oxo-1,2,3,5-tetrahydro-4H-benzo[e][1,4]diazepin-4-yl)-1-oxopropan-2-yl)acetamide] | 2.09 µM
CC[C@H](C)[C@H]1C(=O)Nc2ccccc2CN1C(=O)[C@H]1CCCN1C(C)=O [Compound 197, (S)-4-(acetyl-D-prolyl)-3-((S)-sec-butyl)-1,3,4,5-tetrahydro-2H-benzo[e][1,4]diazepin-2-one] | 1.76 µM
CC[C@H](C)[C@H]1C(=O)Nc2ccccc2CN1C(=O)[C@@H](C)NC(C)=O [Compound 198, N-((R)-1-((S)-3-((S)-sec-butyl)-2-oxo-1,2,3,5-tetrahydro-4H-benzo[e][1,4]diazepin-4-yl)-1-oxopropan-2-yl)acetamide] | 1.66 µM
CC[C@H](C)[C@H]1C(=O)Nc2ccccc2CN1C(=O)CC(C)O (stereo partly drawn) [Compound 199, (3S)-3-((S)-sec-butyl)-4-(3-hydroxybutanoyl)-1,3,4,5-tetrahydro-2H-benzo[e][1,4]diazepin-2-one] | 0.94 µM
C[C@@H](OCc1ccccc1)[C@H]1C(=O)Nc2ccccc2CN1C(=O)c1cnn(C)c1 [Compound 200, (S)-3-((R)-1-(benzyloxy)ethyl)-4-(1-methyl-1H-pyrazole-4-carbonyl)-1,3,4,5-tetrahydro-2H-benzo[e][1,4]diazepin-2-one] | 4.22 µM
CC[C@H](C)[C@H]1C(=O)Nc2ccccc2CN1C(=O)COc1ccccc1C(N)=O [Compound 201, 2-(2-((S)-3-((S)-sec-butyl)-2-oxo-1,2,3,5-tetrahydro-4H-benzo[e][1,4]diazepin-4-yl)-2-oxoethoxy)benzamide] | 0.05 µM
CC[C@H](C)[C@H]1C(=O)Nc2ccccc2CN1C(=O)Nc1ccc(NC(C)=O)nc1 [Compound 202, (S)-N-(6-acetamidopyridin-3-yl)-3-((S)-sec-butyl)-2-oxo-1,2,3,5-tetrahydro-4H-benzo[e][1,4]diazepine-4-carboxamide] | 0.17 µM

SMILES | AC1.4
CC[C@H](C)[C@H]1C(=O)Nc2ccccc2CN1C(=O)NCCO [Compound 203, (S)-3-((S)-sec-butyl)-N-(2-hydroxyethyl)-2-oxo-1,2,3,5-tetrahydro-4H-benzo[e][1,4]diazepine-4-carboxamide] | 1.75 µM
CC[C@H](C)[C@H]1C(=O)Nc2ccccc2CN1C(=O)NCC(N)=O [Compound 204, (S)-N-(2-amino-2-oxoethyl)-3-((S)-sec-butyl)-2-oxo-1,2,3,5-tetrahydro-4H-benzo[e][1,4]diazepine-4-carboxamide] | 3.66 µM
CC[C@H](C)[C@H]1C(=O)Nc2ccccc2CN1C(=O)NCCC(N)=O [Compound 205, (S)-N-(3-amino-3-oxopropyl)-3-((S)-sec-butyl)-2-oxo-1,2,3,5-tetrahydro-4H-benzo[e][1,4]diazepine-4-carboxamide] | 1.58 µM
CC[C@H](C)[C@H]1C(=O)Nc2ccccc2CN1C(=O)NCC(=O)NC [Compound 206, (S)-3-((S)-sec-butyl)-N-(2-(methylamino)-2-oxoethyl)-2-oxo-1,2,3,5-tetrahydro-4H-benzo[e][1,4]diazepine-4-carboxamide] | 4.98 µM
CC[C@H](C)[C@H]1C(=O)Nc2ccccc2CN1C(=O)NC[C@H](O)CO [Compound 207, (S)-3-((S)-sec-butyl)-N-((S)-2,3-dihydroxypropyl)-2-oxo-1,2,3,5-tetrahydro-4H-benzo[e][1,4]diazepine-4-carboxamide] | 3.62 µM
CC[C@H](C)[C@H]1C(=O)Nc2ccccc2CN1C(=O)NC[C@@H](O)CO [Compound 208, (S)-3-((S)-sec-butyl)-N-((R)-2,3-dihydroxypropyl)-2-oxo-1,2,3,5-tetrahydro-4H-benzo[e][1,4]diazepine-4-carboxamide] | 2.70 µM
CC[C@H](C)[C@H]1C(=O)Nc2ccccc2CN1C(=O)N[C@@H]1CCNC1=O [Compound 209, (S)-3-((S)-sec-butyl)-2-oxo-N-((R)-2-oxopyrrolidin-3-yl)-1,2,3,5-tetrahydro-4H-benzo[e][1,4]diazepine-4-carboxamide] | 4.17 µM
CC[C@H](C)[C@H]1C(=O)Nc2ccccc2CN1C(=O)N[C@H]1CCNC1=O [Compound 210, (S)-3-((S)-sec-butyl)-2-oxo-N-((S)-2-oxopyrrolidin-3-yl)-1,2,3,5-tetrahydro-4H-benzo[e][1,4]diazepine-4-carboxamide] | 4.25 µM
CC[C@H](C)[C@H]1C(=O)Nc2ccccc2CN1C(=O)NCCNC(C)=O [Compound 211, (S)-N-(2-acetamidoethyl)-3-((S)-sec-butyl)-2-oxo-1,2,3,5-tetrahydro-4H-benzo[e][1,4]diazepine-4-carboxamide] | 2.92 µM
CC[C@H](C)[C@H]1C(=O)Nc2ccccc2CN1C(=O)NCCNC(N)=O [Compound 212, (S)-3-((S)-sec-butyl)-2-oxo-N-(2-ureidoethyl)-1,2,3,5-tetrahydro-4H-benzo[e][1,4]diazepine-4-carboxamide] | 1.27 µM
CC[C@H](C)[C@H]1C(=O)Nc2ccccc2CN1C(=O)NCC[S+](C)[O-] (stereo partly drawn) [Compound 213, (3S)-3-((S)-sec-butyl)-N-(2-(methylsulfinyl)ethyl)-2-oxo-1,2,3,5-tetrahydro-4H-benzo[e][1,4]diazepine-4-carboxamide] | 4.04 µM
CC[C@H](C)[C@H]1C(=O)Nc2ccccc2CN1C(=O)NCc1cncn1C [Compound 214, (S)-3-((S)-sec-butyl)-N-((1-methyl-1H-imidazol-5-yl)methyl)-2-oxo-1,2,3,5-tetrahydro-4H-benzo[e][1,4]diazepine-4-carboxamide] | 1.72 µM
CC[C@H](C)[C@H]1C(=O)Nc2ccccc2CN1C(=O)NC[C@H]1CCC(=O)N1 [Compound 215, (S)-3-((S)-sec-butyl)-2-oxo-N-(((R)-5-oxopyrrolidin-2-yl)methyl)-1,2,3,5-tetrahydro-4H-benzo[e][1,4]diazepine-4-carboxamide] | 4.65 µM
CC[C@H](C)[C@H]1C(=O)Nc2ccccc2CN1C(=O)N[C@H]1CCCNC1=O [Compound 216, (S)-3-((S)-sec-butyl)-2-oxo-N-((S)-2-oxopiperidin-3-yl)-1,2,3,5-tetrahydro-4H-benzo[e][1,4]diazepine-4-carboxamide] | 2.64 µM
CC[C@H](C)[C@H]1C(=O)Nc2ccccc2CN1C(=O)N[C@@H]1CCCNC1=O [Compound 217, (S)-3-((S)-sec-butyl)-2-oxo-N-((R)-2-oxopiperidin-3-yl)-1,2,3,5-tetrahydro-4H-benzo[e][1,4]diazepine-4-carboxamide] | 2.45 µM
CC[C@H](C)[C@H]1C(=O)Nc2ccccc2CN1C(=O)N[C@@H]1CCC(=O)NC1 [Compound 218, (S)-3-((S)-sec-butyl)-2-oxo-N-((R)-6-oxopiperidin-3-yl)-1,2,3,5-tetrahydro-4H-benzo[e][1,4]diazepine-4-carboxamide] | 0.88 µM
